# Experimental data taken from patent publication US20250042903A1, “TRIAZINE INHIBITORS OF CYCLIN-DEPENDENT KINASES” (H. LEE MOFFITT CANCER CENTER AND RESEARCH INSTITUTE, INC., priority 2021, published 2025).
# What was measured:
# [1] = biological target: cyclin-dependent kinase 12 (Homo sapiens (Human), UniProt Q9NYV4); test: Inhibition of cyclin-dependent kinase 12; assay type: biochemical; details: read-out: CDK12 inhibition, IC50
# Excerpt: (§1) The inhibitory and antiproliferative activities of selected compounds disclosed herein against cyclin-dependent kinase 12 were investigated.
# MDA-MB-231 = test: Antiproliferative activity in MDA-MB-231; assay type: cell-based; details: Homo sapiens
# Excerpt: as §1
# cyclin-dependent kinase 12, sequence (Q9NYV4 whole entry): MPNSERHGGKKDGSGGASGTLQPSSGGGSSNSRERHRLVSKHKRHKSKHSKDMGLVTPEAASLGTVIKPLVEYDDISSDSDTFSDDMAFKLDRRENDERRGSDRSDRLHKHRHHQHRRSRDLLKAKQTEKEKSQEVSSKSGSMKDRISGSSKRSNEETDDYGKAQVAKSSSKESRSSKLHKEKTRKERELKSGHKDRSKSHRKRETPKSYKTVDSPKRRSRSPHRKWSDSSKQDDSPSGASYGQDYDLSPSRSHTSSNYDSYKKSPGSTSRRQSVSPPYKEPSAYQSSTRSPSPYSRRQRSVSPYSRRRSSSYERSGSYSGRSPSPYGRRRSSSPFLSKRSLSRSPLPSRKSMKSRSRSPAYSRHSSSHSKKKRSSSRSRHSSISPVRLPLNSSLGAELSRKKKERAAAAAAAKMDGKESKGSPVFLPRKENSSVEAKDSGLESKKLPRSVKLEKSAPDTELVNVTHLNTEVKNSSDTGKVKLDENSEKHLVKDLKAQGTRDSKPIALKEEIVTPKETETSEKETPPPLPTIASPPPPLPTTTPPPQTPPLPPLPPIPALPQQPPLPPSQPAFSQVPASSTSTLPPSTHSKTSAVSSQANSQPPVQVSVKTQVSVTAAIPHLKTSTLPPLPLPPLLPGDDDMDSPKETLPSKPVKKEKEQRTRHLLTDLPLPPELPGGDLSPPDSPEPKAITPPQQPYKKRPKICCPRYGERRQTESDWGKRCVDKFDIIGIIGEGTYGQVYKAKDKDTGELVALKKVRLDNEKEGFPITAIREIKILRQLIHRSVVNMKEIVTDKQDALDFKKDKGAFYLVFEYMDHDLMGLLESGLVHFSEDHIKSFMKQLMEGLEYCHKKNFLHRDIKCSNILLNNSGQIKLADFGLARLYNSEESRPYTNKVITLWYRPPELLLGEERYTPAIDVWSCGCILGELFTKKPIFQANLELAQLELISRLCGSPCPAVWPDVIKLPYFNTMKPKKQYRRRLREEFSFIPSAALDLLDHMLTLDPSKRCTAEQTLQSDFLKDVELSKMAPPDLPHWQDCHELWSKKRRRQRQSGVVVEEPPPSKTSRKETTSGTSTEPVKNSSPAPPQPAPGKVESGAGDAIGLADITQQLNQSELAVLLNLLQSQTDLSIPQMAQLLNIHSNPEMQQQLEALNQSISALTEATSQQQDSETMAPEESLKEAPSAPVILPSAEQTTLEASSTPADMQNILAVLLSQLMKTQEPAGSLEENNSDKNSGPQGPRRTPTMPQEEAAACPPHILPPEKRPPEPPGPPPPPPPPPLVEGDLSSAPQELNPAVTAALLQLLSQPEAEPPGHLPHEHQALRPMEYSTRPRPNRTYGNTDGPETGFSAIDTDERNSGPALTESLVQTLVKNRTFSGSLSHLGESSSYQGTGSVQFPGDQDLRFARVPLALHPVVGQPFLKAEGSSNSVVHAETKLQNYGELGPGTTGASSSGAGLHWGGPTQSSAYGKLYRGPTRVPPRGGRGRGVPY
# cyclin-dependent kinase 12, sequence (O75909 whole entry partner): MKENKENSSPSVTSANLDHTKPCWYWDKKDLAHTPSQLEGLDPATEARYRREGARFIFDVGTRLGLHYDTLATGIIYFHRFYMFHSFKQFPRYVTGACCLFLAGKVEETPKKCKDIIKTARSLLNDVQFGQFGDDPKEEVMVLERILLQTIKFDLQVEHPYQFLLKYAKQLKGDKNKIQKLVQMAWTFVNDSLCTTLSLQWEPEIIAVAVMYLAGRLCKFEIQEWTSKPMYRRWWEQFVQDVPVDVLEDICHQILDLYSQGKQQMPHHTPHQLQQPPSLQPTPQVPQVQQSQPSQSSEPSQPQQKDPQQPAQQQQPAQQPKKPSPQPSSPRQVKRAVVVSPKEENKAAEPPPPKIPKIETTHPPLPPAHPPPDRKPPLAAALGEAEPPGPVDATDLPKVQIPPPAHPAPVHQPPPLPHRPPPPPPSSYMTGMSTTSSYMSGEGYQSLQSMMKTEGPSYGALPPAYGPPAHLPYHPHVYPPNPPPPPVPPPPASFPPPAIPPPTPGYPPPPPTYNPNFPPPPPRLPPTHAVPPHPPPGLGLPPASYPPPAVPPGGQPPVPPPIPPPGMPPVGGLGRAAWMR
SMILES,IC50 [1],GI50 (MDA-MB-231)
"Cn1cc(-c2cnn3c(NCc4nc5cc(Cl)c(Cl)cc5[nH]4)nc(N4CCOCC4)nc23)cn1 [Compound 1, N-((5,6-dichloro-1H-benzo[d]imidazol-2-yl)methyl)-8-(1-methyl-1H-pyrazol-4-yl)-2-morpholinopyrazolo[1,5-a][1,3,5]triazin-4-amine]",554 nM,419 nM
"FC(F)n1cc(-c2cnn3c(NCc4nc5cc(Cl)c(Cl)cc5[nH]4)nc(N4CCOCC4)nc23)cn1 [Compound 2, N-((5,6-dichloro-1H-benzo[d]imidazol-2-yl)methyl)-8-(1-(difluoromethyl)-1H-pyrazol-4-yl)-2-morpholinopyrazolo[1,5-a][1,3,5]triazin-4-amine]",262 nM,150 nM
"FC(F)n1cc(-c2cnn3c(NCc4nc5cc(Cl)c(Cl)cc5[nH]4)nc(N4CCC(F)(F)CC4)nc23)cn1 [Compound 3, N-((5,6-dichloro-1H-benzo[d]imidazol-2-yl)methyl)-8-(1-(difluoromethyl)-1H-pyrazol-4-yl)-2-(4,4-difluoropiperidin-1-yl)pyrazolo[1,5-a][1,3,5]triazin-4-amine]",> 10000 nM,710 nM
"OC[C@@H]1COCCN1c1nc(NCc2nc3cc(Cl)c(Cl)cc3[nH]2)n2ncc(-c3cnn(C(F)F)c3)c2n1 [Compound 4, (R)-(4-(4-(((5,6-dichloro-1H-benzo[d]imidazol-2-yl)methyl)amino)-8-(1-(difluoromethyl)-1H-pyrazol-4-yl)pyrazolo[1,5-a][1,3,5]triazin-2-yl)morpholin-3-yl)methanol]",4050 nM,384 nM
"Clc1cc2nc(CNc3nc(N4CCOCC4)nc4c(-c5ccsc5)cnn34)[nH]c2cc1Cl [Compound 5, N-((5,6-dichloro-1H-benzo[d]imidazol-2-yl)methyl)-2-morpholino-8-(thiophen-3-yl)pyrazolo[1,5-a][1,3,5]triazin-4-amine]",2420 nM,764 nM
"FC(F)n1cc(-c2cnn3c(NCc4nc5cccc(Cl)c5[nH]4)nc(N4CCOCC4)nc23)cn1 [Compound 6, N-((7-chloro-1H-benzo[d]imidazol-2-yl)methyl)-8-(1-(difluoromethyl)-1H-pyrazol-4-yl)-2-morpholinopyrazolo[1,5-a][1,3,5]triazin-4-amine]",65 nM,62 nM
"FC(F)n1cc(-c2cnn3c(NCc4nc5cccc(Cl)c5[nH]4)nc(N4CCC(F)(F)CC4)nc23)cn1 [Compound 7, N-((7-chloro-1H-benzo[d]imidazol-2-yl)methyl)-8-(1-(difluoromethyl)-1H-pyrazol-4-yl)-2-(4,4-difluoropiperidin-1-yl)pyrazolo[1,5-a][1,3,5]triazin-4-amine]",552 nM,980 nM
"Fc1cccc2nc(CNc3nc(N4CCOCC4)nc4c(-c5cnn(C(F)F)c5)cnn34)[nH]c12 [Compound 8, 8-(1-(difluoromethyl)-1H-pyrazol-4-yl)-N-((7-fluoro-1H-benzo[d]imidazol-2-yl)methyl)-2-morpholinopyrazolo[1,5-a][1,3,5]triazin-4-amine]",44 nM,44 nM
"Clc1cccc2nc(CNc3nc(N4CCOCC4)nc4c(-c5ccsc5)cnn34)[nH]c12 [Compound 9, N-((7-chloro-1H-benzo[d]imidazol-2-yl)methyl)-2-morpholino-8-(thiophen-3-yl)pyrazolo[1,5-a][1,3,5]triazin-4-amine]",377 nM,227 nM
"CN1CCN(c2nc(NCc3nc4cccc(Cl)c4[nH]3)n3ncc(-c4ccsc4)c3n2)CC1 [Compound 10, N-((7-chloro-1H-benzo[d]imidazol-2-yl)methyl)-2-(4-methylpiperazin-1-yl)-8-(thiophen-3-yl)pyrazolo[1,5-a][1,3,5]triazin-4-amine]",1560 nM,835 nM
"Fc1cc2nc(CNc3nc(N4CCOCC4)nc4c(-c5ccsc5)cnn34)[nH]c2cc1F [Compound 11, N-((5,6-difluoro-1H-benzo[d]imidazol-2-yl)methyl)-2-morpholino-8-(thiophen-3-yl)pyrazolo[1,5-a][1,3,5]triazin-4-amine]",196 nM,61 nM
"Cn1cc(-c2cnn3c(NCc4nc5cccc(Cl)c5[nH]4)nc(N4CCOCC4)nc23)cn1 [Compound 12, N-((7-chloro-1H-benzo[d]imidazol-2-yl)methyl)-8-(1-methyl-1H-pyrazol-4-yl)-2-morpholinopyrazolo[1,5-a][1,3,5]triazin-4-amine]",289 nM,1110 nM
"Cn1cc(-c2cnn3c(NCc4nc5cccc(Cl)c5[nH]4)nc(N4CCC(F)(F)CC4)nc23)cn1 [Compound 13, N-((7-chloro-1H-benzo[d]imidazol-2-yl)methyl)-2-(4,4-difluoropiperidin-1-yl)-8-(1-methyl-1H-pyrazol-4-yl)pyrazolo[1,5-a][1,3,5]triazin-4-amine]",1280 nM,3770 nM
"Cn1cc(-c2cnn3c(NCc4nc5cc(F)c(F)cc5[nH]4)nc(N4CCOCC4)nc23)cn1 [Compound 14, N-((5,6-difluoro-1H-benzo[d]imidazol-2-yl)methyl)-8-(1-methyl-1H-pyrazol-4-yl)-2-morpholinopyrazolo[1,5-a][1,3,5]triazin-4-amine]",1350 nM,1240 nM
